Measured values as given in patent US8017612B2, “Piperazine compound and use thereof as a HCV polymerase inhibitor” (priority 2006, dated 2011).
Structures can show the parent of a compound that is named as a salt.

Key:
[1] = target: T1, HCV polymerase (NS5B) type 1b (Hepatitis C virus genotype 1b, UniProt P26663); test: Assay of enzyme (HCV polymerase) inhibitory activity, type 1b enzyme; assay type: biochemical, HCV BK strain (type 1b)
T1 construct: a region encoding NS5B (J Virol 1991 March, 65(3), 1105-13, 544 amino acids after deletion of 47 amino acids on the C-terminal); 6xHis (C); made in house; host or cells: Escherichia coli
Summary of the method: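 His-tagged, C-terminally truncated NS5B (BK strain, 1b; 0.5 μg/ml) incubated with compound 60 min at 25 °C on 3′UTR-derived substrate RNA (5 μg/ml), 50 μM ATP/GTP/CTP, 2 μM UTP plus [3H]UTP, pH 7.5. Acid-precipitated RNA counted; IC50 from radioactivity with and without compound.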

[2] = target: T2, HCV polymerase (NS5B) type 1a (Hepatitis C virus genotype 1a, UniProt P26664); test: Assay of enzyme (HCV polymerase) inhibitory activity, type 1a enzyme; assay type: biochemical, HCV type 1a (cloned from the blood of patients)
T2 construct: made in house; host or cells: Escherichia coli (by the 'similar method' of the 1b enzyme)
Summary of the method: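 His-tagged NS5B, C-terminal 47 residues deleted, type 1a at 1.5 μg/ml, with 5 μg/ml HCV 3′UTR substrate RNA, 50 μM ATP/GTP/CTP, 2 μM UTP plus [3H]UTP, pH 7.5 Tris, 5 mM MgCl2; 60 min at 25° C. TCA-precipitated RNA counted by scintillation; IC50 from radioactivity with vs. without compound.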

[3] = HCV polymerase inhibitory activity (IC50), 1b, type 1b enzyme 0.5 μg/ml, 25° C., 60 min
[4] = HCV polymerase inhibitory activity (IC50), 1a, type 1a enzyme 1.5 μg/ml, 25° C., 60 min
[5] = HCV polymerase inhibitory activity IC50, 1b, type 1b enzyme
[6] = HCV polymerase inhibitory activity IC50, 1a, type 1a enzyme

Row | SMILES | IC50 [1, 3] [nM] | IC50 [2, 4] [nM] | IC50 [1, 5] [nM] | IC50 [2, 6] [nM]
1 | Cc1nc(N2CCN(S(=O)(=O)c3ccc(OC(F)(F)F)cc3)[C@@H](C(=O)NCc3ccccc3)C2)sc1C(=O)O [Example 401, 2-[(R)-3-benzylcarbamoyl-4-(4-trifluoromethoxy-benzenesulfonyl)-piperazin-1-yl]-4-methyl-thiazole-5-carboxylic acid] | 100 to 1000 | > 1000 |  | 
2 | CCCc1ccc(CNC(=O)[C@H]2CN(c3nc(C)c(C(=O)O)s3)CCN2S(=O)(=O)c2ccc(CC)cc2)cc1 [Example 414, 2-[(R)-4-(4-ethyl-benzenesulfonyl)-3-(4-propyl-benzylcarbamoyl)-piperazin-1-yl]-4-methyl-thiazole-5-carboxylic acid] | < 100 | < 100 |  | 
3 | O=C(NCc1ccc(OC(F)F)c(F)c1)[C@H]1CN(c2nc3nc(C(F)(F)F)ncc3s2)CCN1S(=O)(=O)c1ccc(C(F)(F)F)cc1 [Example 1085, (R)-1-(4-trifluoromethyl-benzenesulfonyl)-4-(5-trifluoromethyl-thiazolo[4,5-d]pyrimidin-2-yl)-piperazine-2-carboxylic acid 4-difluoromethoxy-3-fluoro-benzylamide] |  |  | < 100 | < 100
4 | CN(C)c1ccc(CNC(=O)C2CN(C(=O)CN3CCOCC3)CCN2S(=O)(=O)c2ccc(I)cc2)cc1 (centres unmarked) [Example 104, 1-(4-iodo-benzenesulfonyl)-4-(2-morpholin-4-yl-acetyl)-piperazine-2-carboxylic acid 4-dimethylamino-benzylamide] | > 1000 | > 1000 |  | 
5 | CC(=O)N1CCN(S(=O)(=O)c2ccc(OC(F)(F)F)cc2)[C@@H](C(=O)NCc2ccc(O)cc2)C1 [Example 613, (R)-4-acetyl-1-(4-trifluoromethoxy-benzenesulfonyl)-piperazine-2-carboxylic acid 4-hydroxy-benzylamide] | > 1000 | > 1000 |  | 
6 | COCc1ccc(S(=O)(=O)N2CCN(C(C)=O)CC2C(=O)NCc2ccc(C(F)(F)F)cc2)cc1 (centres unmarked) [Example 143, 4-acetyl-1-(4-methoxymethyl-benzenesulfonyl)-piperazine-2-carboxylic acid 4-trifluoromethyl-benzylamide] | > 1000 | > 1000 |  | 
7 | O=C(NCc1ccc(OCF)cc1)[C@H]1CN(c2nc3ncncc3s2)CCN1S(=O)(=O)c1ccc(OC(F)(F)F)cc1 [Example 967, (R)-4-thiazolo[4,5-d]pyrimidin-2-yl-1-(4-trifluoromethoxy-benzenesulfonyl)-piperazine-2-carboxylic acid 4-fluoromethoxy-benzylamide] |  |  | < 100 | < 100
8 | CCCc1ccc(CNC(=O)[C@H]2CN(c3nc(C)c(C(N)=O)s3)CCN2S(=O)(=O)c2ccc(OC(F)(F)F)cc2)cc1 [Example 406, (R)-4-(5-carbamoyl-4-methyl-thiazol-2-yl)-1-(4-trifluoromethoxy-benzenesulfonyl)-piperazine-2-carboxylic acid 4-propyl-benzylamide] | < 100 | < 100 |  | 
9 | CCOC(=O)COc1ccc(NC(=O)N2CCN(S(=O)(=O)c3ccc(C(F)(F)F)cc3)[C@@H](C(=O)NCc3ccc(C(C)C)cc3)C2)cc1 [Example 245, (4-{[(R)-3-(4-isopropyl-benzylcarbamoyl)-4-(4-trifluoromethyl-benzenesulfonyl)-piperazine-1-carbonyl]-amino}-phenoxy)-acetic acid ethyl ester] | 100 to 1000 | > 1000 |  | 
10 | CCC(F)(F)c1ccc(CNC(=O)[C@H]2CN(c3cnc4cncc(C(=O)O)c4n3)CCN2S(=O)(=O)c2ccc(OC(F)(F)F)cc2)cc1 [Example 836, 2-[(R)-3-[4-(1,1-difluoro-propyl)-benzylcarbamoyl]-4-(4-trifluoromethoxy-benzenesulfonyl)-piperazin-1-yl]-pyrido[3,4-b]pyrazine-8-carboxylic acid] |  |  | < 100 | < 100
11 | CCC(F)(F)c1ccc(CNC(=O)[C@H]2CN(C(=O)N3CCC(C(=O)O)CC3)CCN2S(=O)(=O)c2ccc(OC(F)(F)F)cc2)cc1 [Example 706, 1-[(R)-3-[4-(1,1-difluoro-propyl)-benzylcarbamoyl]-4-(4-trifluoromethoxy-benzenesulfonyl)-piperazine-1-carbonyl]-piperidine-4-carboxylic acid] |  |  | > 1000 | > 1000
12 | CC(=O)N1CCN(S(=O)(=O)c2ccc(C(C)C)cc2)C(C(=O)NCc2ccc(C(C)(C)C)cc2)C1 (centres unmarked) [Example 68, 4-acetyl-1-(4-isopropyl-benzenesulfonyl)-piperazine-2-carboxylic acid 4-tert-butyl-benzylamide] | 100 to 1000 | 100 to 1000 |  | 
13 | CC(=O)N1CCN(S(=O)(=O)c2ccc(OC(F)(F)F)cc2)[C@@H](C(=O)NCc2ccc(-c3cccs3)cc2)C1 [Example 623, (R)-4-acetyl-1-(4-trifluoromethoxy-benzenesulfonyl)-piperazine-2-carboxylic acid 4-thiophen-2-yl-benzylamide] | 100 to 1000 | < 100 |  | 
14 | CCC(F)(F)c1ccc(CNC(=O)[C@H]2CN(C(=O)Nc3nc(C)ns3)CCN2S(=O)(=O)c2ccc(OC(F)(F)F)cc2)cc1 [Example 527, (R)-4-(4-trifluoromethoxy-benzenesulfonyl)-piperazine-1,3-dicarboxylic acid 3-[4-(1,1-difluoro-propyl)-benzylamide] 1-[(3-methyl-[1,2,4]thiadiazol-5-yl)-amide]] | 100 to 1000 | 100 to 1000 |  | 
15 | CCCc1ccc(CNC(=O)[C@H]2CN(c3cnc(C(=O)O)cn3)CCN2S(=O)(=O)c2ccc(CC)cc2)cc1 [Example 415, (R)-4-(4-ethyl-benzenesulfonyl)-3-(4-propyl-benzylcarbamoyl)-3,4,5,6-tetrahydro-2H-[1,2′]bipyrazinyl-5′-carboxylic acid] | < 100 | < 100 |  | 
16 | O=C(NCc1ccc(OC(F)(F)F)cc1)[C@H]1CN(C(=O)Nc2nnc(Br)s2)CCN1S(=O)(=O)c1ccc(OC(F)(F)F)cc1 [Example 936, (R)-4-(4-trifluoromethoxy-benzenesulfonyl)-piperazine-1,3-dicarboxylic acid 1-[(5-bromo-[1,3,4]thiadiazol-2-yl)-amide] 3-(4-trifluoromethoxy-benzylamide)] |  |  | > 1000 | > 1000
17 | CC(C)c1ccc(CNC(=O)[C@H]2CN(C(=O)CNCCC(=O)O)CCN2S(=O)(=O)c2ccc(C(F)(F)F)cc2)cc1 [Example 391, 3-{2-[(R)-3-(4-isopropyl-benzylcarbamoyl)-4-(4-trifluoromethyl-benzenesulfonyl)-piperazin-1-yl]-2-oxo-ethylamino}-propionic acid hydrochloride] | 100 to 1000 | 100 to 1000 |  | 
18 | COc1ccc(S(=O)(=O)N2CCN(c3nc4cn[nH]c(=O)c4s3)C[C@@H]2C(=O)NCc2ccc(OC(F)(F)F)cc2)cc1 [Example 884, (R)-1-(4-methoxy-benzenesulfonyl)-4-(7-oxo-6,7-dihydro-thiazolo[4,5-d]pyridazin-2-yl)-piperazine-2-carboxylic acid 4-trifluoromethoxy-benzylamide] |  |  | < 100 | < 100
19 | CCCc1ccc(CNC(=O)[C@H]2CN(c3nc4nc(Cl)ncc4s3)CCN2S(=O)(=O)c2ccc(OC(F)(F)F)cc2)cc1 [Example 913, (R)-4-(5-chloro-thiazolo[4,5-d]pyrimidin-2-yl)-1-(4-trifluoromethoxy-benzenesulfonyl)-piperazine-2-carboxylic acid 4-propyl-benzylamide] |  |  | < 100 | < 100
